Data on 10 compounds can be found in patent US7521528B2, “Conformationally constrained parathyroid hormone (PTH) analogs with lactam bridges” (The General Hospital Corporation, priority 2003, dated 2009).

Assay [1] deals with T1, recombinant full-length P1R (Homo sapiens, UniProt Q03431).
T1 construct: expressed in transfected cells
T1 sequence (Q03431 27-593): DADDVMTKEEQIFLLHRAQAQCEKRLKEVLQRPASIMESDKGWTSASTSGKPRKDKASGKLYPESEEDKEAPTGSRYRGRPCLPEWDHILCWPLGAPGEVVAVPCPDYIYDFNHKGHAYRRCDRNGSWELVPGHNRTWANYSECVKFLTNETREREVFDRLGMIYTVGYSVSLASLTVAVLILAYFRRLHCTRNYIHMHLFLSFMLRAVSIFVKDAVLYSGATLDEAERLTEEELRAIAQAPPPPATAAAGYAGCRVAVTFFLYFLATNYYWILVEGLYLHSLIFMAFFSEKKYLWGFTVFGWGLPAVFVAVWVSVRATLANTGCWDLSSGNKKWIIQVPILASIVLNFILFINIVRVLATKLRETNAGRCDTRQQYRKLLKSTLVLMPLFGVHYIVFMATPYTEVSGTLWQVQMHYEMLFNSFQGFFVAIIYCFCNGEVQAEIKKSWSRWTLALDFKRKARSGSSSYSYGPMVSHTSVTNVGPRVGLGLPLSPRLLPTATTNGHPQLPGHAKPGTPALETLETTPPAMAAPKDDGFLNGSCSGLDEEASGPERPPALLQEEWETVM
In words: cAMP stimulation in HKRK-B28 cells. The assay is classed as cell-based. To be noted: for Emax: percent of maximum response of PTH(1-14), Table 3; for Emax at 1 µM: at 1×10^−6 M, percent of maximum response of PTH(1-34). The method, then: (§1) Cell Culture. The cell line HKRK-B28 (Takasu, H., et al., J. Bone Miner. Res. 14:11-20 (1999)) was derived from the porcine kidney cell line, LLC-PK1 by stable transfection with plasmid DNA encoding the full-length P1R and expresses ˜280,000 receptors per cell. These cells, as well as COS-7 cells and SaOS-2-B10 cells, were cultured at […] in T-75 flasks ([…]) in Dulbecco's modified Eagle's medium (DMEM) supplemented with fetal bovine serum (10%), penicillin G (20 units/ml), streptomycin sulfate (20 μg/ml) and amphotericin B (0.05 μg/ml) in a humidified atmosphere containing 5% CO2. Stock solutions of EGTA/trypsin and antibiotics were from GIBCO; fetal bovine serum was from Hyclone Laboratories (Logan, Utah). COS-7 cells sub-cultured in 24-well plates were transfected with plasmid DNA (200 ng per well) encoding the wild-type human P1R or truncated human P1R deleted for residues (24-181) (Shimizu, M., et al., J. Biol. Chem. 275:21836-21843 (2000)) that was purified by cesium chloride/ethidium bromide density gradient centrifugation, and FuGENE 6 transfection reagent (Roche Indianapolis Ind.) according to the manufacturer's recommended procedure. All cells, in 24-well plates, were treated with fresh media and shifted to 33° C. for 12 to 24 h prior to assay.
(§2) cAMP Stimulation. Stimulation of cells with peptide analogs was performed in 24-well plates. Cells were rinsed with 0.5 mL of binding buffer (50 mM Tris-HCl, 100 mM NaCl, 5 mM KCl, 2 mM CaCl2, 5% heat-inactivated horse serum, 0.5% fetal bovine serum, adjusted to pH 7.5 with HCl) and treated with 200 μL of cAMP assay buffer (Delbecco's modified Eagle's medium containing 2 mM 3-isobutyl-1-methylxanthine, 1 mg/mL bovine serum albumin, 35 mM Hepes-NaOH, pH 7.4) and 100 μL of binding buffer containing varying amounts of peptide analog (final volume=300 μL). The medium was removed after incubation for 30 to 60 minutes at room temperature, and the cells were frozen on dry ice, lysed with 0.5 mL 50 mM HCl, and refrozen ([…]). The cAMP content of the diluted lysate was determined by radioimmunoassay. The EC50 response values were calculated using nonlinear regression (see below).
(§3) Data Calculation. Calculations were performed using Microsoft® Excel. Nonlinear regression analyses of binding and cAMP dose-response data were performed using the four-parameter equation: yp=Min+[(Max−Min)/(1+(IC50/x)^slope)]. The Excel Solver function was utilized for parameter optimization, as described previously (Carter, P. H., et al., Endocrinology 140: 4972-4981 (1999); Bowen, W. P., and Jerman, J. C., Trends in Pharmacol. Sci. 16: 413-417 (1995)). Differences between paired data sets were statistically evaluated using a one-tailed Student's t-test, assuming unequal variances for the two sets.
The effects of installing a direct covalent linkage between the side chains of the residues at positions 6 and 10 on PTH analog function were also assessed. To do this, paired Glu^6/Lys^10 or Lys^6/Glu^10 substitutions were introduced into an otherwise non-constrained PTH(1-14) analog scaffold AlaValAlaGluIleGln LeuMetHisGlnHarAlaLysTrp-amide (SEQ. ID. NO. 11) and formed an amide bond between the carboxylate side chain group of the introduced glutamate residue and the amino side chain group of the introduced lysine residue. For controls, a portion of each Glu/Lys- or Lys/Glu-substituted PTH(1-14) analog was preserved in the non-bridged form. The four peptides: [Glu^6, Lys^10]PTH(1-14)(linear)(SEQ. ID. NO. 24), [(Glu^6,Lys^10)lac.]PTH(1-14) cyclized via a 6-10 lactam bridge)(SEQ. ID. NO. 3), [Lys^6, Glu^10]PTH(1-14)(SEQ. ID. NO. 25), and [(Lys^6, Glu^10)lac.]PTH(1-14)(SEQ. ID. NO. 26) were first compared at a single dose of 10 μM for the capacity to stimulate cAMP formulation in HKRK-B28 cells, an LLC-PK1-derived cell line that expresses the recombinant full-length P1R at a moderate level (˜280,000 receptors per cell). […]

The target of the next assay is T2, P1R-DelNt (Homo sapiens, UniProt Q03431).
T2 construct: expressed in transfected cells
T2 sequence (Q03431 with tags, fused parts or gaps limits assumed): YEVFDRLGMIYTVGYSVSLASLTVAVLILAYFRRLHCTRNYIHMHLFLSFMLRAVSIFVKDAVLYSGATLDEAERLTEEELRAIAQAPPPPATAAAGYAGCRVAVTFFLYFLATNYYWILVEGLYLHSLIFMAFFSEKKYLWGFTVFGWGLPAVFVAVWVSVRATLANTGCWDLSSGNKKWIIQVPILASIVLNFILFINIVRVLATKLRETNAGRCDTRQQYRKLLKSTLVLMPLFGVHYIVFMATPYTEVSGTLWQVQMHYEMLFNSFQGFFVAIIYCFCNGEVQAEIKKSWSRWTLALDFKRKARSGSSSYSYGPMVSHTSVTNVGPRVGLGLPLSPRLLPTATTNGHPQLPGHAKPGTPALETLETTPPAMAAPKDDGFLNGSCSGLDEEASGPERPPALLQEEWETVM
Nature of the assay: cAMP stimulation in LdelNt-2 cells. The assay is classed as cell-based. The note with it: for Emax: percent of maximum response of PTH(1-11). The method, then:
as §2, §3
The two-domain hypothesis of the PTH-P1R interaction mechanism predicts that the effects of the substitutions at positions 6 and 10 observed with the above PTH(1-11) analogs involve interactions (direct or indirect) that occur within the juxtamembrane region of the receptor. To test this hypothesis, P1R-DelNt was utilized. P1R-DeNt is a P1R construct that is deleted for most of the N domain yet which retains nearly full capacity to be expressed on the cell surface and to stimulate cAMP formation in response to N-terminal PTH analogs, and an LLC-PK1-derived cell line was herein established, LdelNt-2, which stably expresses P1R-DelNt.

Assay [2] concerns the target T3, P1R (Homo sapiens, UniProt Q03431).
T3 construct: expressed in transfected cells
T3 sequence (Q03431 27-593): T1 sequence (Q03431 27-593)
In words: cAMP stimulation in HKRK-B7 cells. The class given is cell-based. The note with it: for Emax: cAMP response, Table 1. The method, then: as §2, §3
The functional effects of substitutions at positions 6 and 10 in PTH using a PTH(1-11) analog AlaValAlaGluIleGlnLeuMetHisGlnArg-amide as the scaffold peptide (SEQ. ID. NO. 8). The peptides were analyzed for the capacity to stimulate cAMP formation in HKRK-B7 cells, an LLC-PK1-derived cell line that expresses via stable transfection the recombinant human P1R at high density (˜950,000 receptors per cell).

The target of the next assay is T4, wild-type human P1R (Homo sapiens, UniProt Q03431).
T4 construct: expressed in transfected cells; host or cells: COS-7 (transient transfection, FuGENE 6)
T4 sequence (Q03431 27-593): T1 sequence (Q03431 27-593)
Nature of the assay: cAMP stimulation in COS-7 cells transiently transfected with P1R-WT. The class given is cell-based. The note with it: at 1×10^−6M, percent of maximum response of PTH(1-34) on P1R-WT. The method, then: as §1
cAMP Stimulation. Stimulation of cells with peptide analogs was performed in 24-well plates. […] The cAMP content of the diluted lysate was determined by radioimmunoassay. The EC50 response values were calculated using nonlinear regression (see below).
Data Calculation. […] Differences between paired data sets were statistically evaluated using a one-tailed Student's t-test, assuming unequal variances for the two sets.
(§4) The peptide PTH(1-34)([Tyr^34]hPTH(1-34)NH2)(SEQ. ID. NO. 11) and analogs containing the indicated residues at positions 6 and/or 10 were evaluated for the capacity to stimulate cAMP accumulation in COS-7 cells transiently transfected with either the wild-type P1R(P1R-WT) or P1R-DelNt. […]

For assay [3], the target named is T5, P1R-DelNt (truncated human P1R deleted for residues 24-181) (Homo sapiens, UniProt Q03431).
T5 construct: expressed in transfected cells; host or cells: COS-7 (transient transfection, FuGENE 6)
T5 sequence (Q03431 with tags, fused parts or gaps limits assumed): T2 sequence (Q03431 with tags, fused parts or gaps limits assumed)
In words: cAMP stimulation in COS-7 cells transiently transfected with P1R-DelNt. The note with it: for Emax: COS-7, at 1×10^−5, percent of maximum response of PTH(1-34) on P1R-WT. The assay is classed as cell-based. The method, then:
as §1, §2
Data Calculation. Calculations were performed using Microsoft® Excel. […] Differences between paired data sets were statistically evaluated using a one-tailed Student's t-test, assuming unequal variances for the two sets.
as §4

Assay [4] deals with T3, P1R. To be noted: cAMP-signaling, literature (Luck et al. 1999); cited from earlier work.

Non-standard residues stand in square brackets, D forms with d. Residues, ends and D or L forms follow the SMILES beside them. hArg = N=C(N)NCCCC[C@H](N)C(=O)O

As to `CC[C@H](C)[C@H](NC(=O)[C@H](CCC(=O)O)NC(=O)[C@H](C)NC(=O)[C@@H](NC(=O)[C@H](C)N)C(C)C)C(=O)N[C@@H](CCC(=O)O)C(=O)N[C@@H](CC(C)C)C(=O)N[C@@H](CCSC)C(=O)N[C@@H](Cc1c[nH]cn1)C(=O)N[C@@H](CCCCN)C(=O)N[C@@H](CCCCNC(=N)N)C(=O)N[C@@H](C)C(=O)N[C@@H](CCCCN)C(=O)N[C@@H](Cc1c[nH]c2ccccc12)C(N)=O` [[Glu^6, Lys^10]PTH(1-14)] (H-AVAEIELMHK[hArg]AKW-NH2), in assay [1], the Emax was 52 ± 3%.

`CC[C@H](C)[C@H](NC(=O)[C@H](CCC(=O)O)NC(=O)[C@H](C)NC(=O)[C@@H](NC(=O)[C@H](C)N)C(C)C)C(=O)N[C@@H](CCCCN)C(=O)N[C@@H](CC(C)C)C(=O)N[C@@H](CCSC)C(=O)N[C@@H](Cc1c[nH]cn1)C(=O)N[C@@H](CCC(=O)O)C(=O)N[C@@H](CCCCNC(=N)N)C(=O)N[C@@H](C)C(=O)N[C@@H](CCCCN)C(=O)N[C@@H](Cc1c[nH]c2ccccc12)C(N)=O` [[Lys^6, Glu^10]PTH(1-14)] (H-AVAEIKLMHE[hArg]AKW-NH2): the Emax in assay [1] was 37 ± 5%.

As for “H-AVAEIALMHAR-NH2 [[Ala^6, Ala^10]PTH(1-11)]”, at P1R-DelNt, the “potency relative to [Ala^6]PTH(1-11)” value is “two-fold lower” and the Emax stood at 42 ± 5%. Also, at P1R [2], the “potency relative to [Ala^6]PTH(1-11)” value is listed as “two-fold greater” and the Emax is 41 ± 2%.

With H-AVAEIALMHQR-NH2 [[Ala^6]PTH(1-11)], at P1R-DelNt, the “EC50/potency difference versus parent PTH(1-11)” value was approximately 3 fold and the Emax was found to be 14 ± 2%. The compound also showed an Emax on P1R [2] of 26 ± 2%.

Consider H-AVAEIQLMHAR-NH2 [[Ala^10]PTH(1-11)], for which the Emax on P1R-DelNt worked out at 79 ± 5%; on P1R [2], 88 ± 5%.

Consider “H-AVAEIQLMHQR-NH2 [PTH(1-11)(SEQ. ID. NO. 8), AlaValAlaGluIleGlnLeuMetHisGlnArg-amide]”, for which, on P1R-DelNt, the “EC50/potency difference versus parent PTH(1-11)” value is reported as 22 fold, the “fold increase in cAMP formation/accumulation” value is 55 fold and the Emax amounted to 100 ± 2%. Further, the “maximum cAMP response observed” value on P1R-DelNt (n=3) was 113±4 pM of cAMP per well. In addition, on P1R [2], the “fold increase in cAMP formation” value is on record as 75 fold and the Emax was determined as 100 ± 3%.

For “H-SVSEIALMHALGKHLNSMERVEWLRKKLQDVHNY-NH2 [[Ala^6,10]PTH(1-34)]”, the results for the Emax at 1 µM (on wild-type human P1R; in assay [1]) were 121 ± 7% and 107 ± 8%, respectively. For the same compound, the maximum response (Emax) in assay [3] was determined as 44 ± 2%. Also, in assay [3] (COS-7 cells expressing P1R-DelNt), the “cAMP-signaling potency (in words)” value was “as potent as PTH(1-34)”.

For the compound “H-SVSEIALMHNLGKHLNSMERVEWLRKKLQDVHNY-NH2 [[Ala^6]PTH(1-34)]”, the Emax at 1 µM at wild-type human P1R came to 104 ± 2%; in assay [1], 105 ± 10%. For the same compound, in assay [3], the Emax turned out to be 4.5 ± 0.9%.

On to “H-SVSEIQLMHALGKHLNSMERVEWLRKKLQDVHNY-NH2 [[Ala^10]PTH(1-34)]”, for which the Emax at 1 µM on wild-type human P1R came to 96 ± 4%; in assay [1], 106 ± 7%. The compound also returned an Emax in assay [3] of 46 ± 2%.

For the compound “PTH(1-34): first 34 amino acids of PTH, literature data”, the EC50 with P1R [4] was approximately 2 nM.

By Emax is commonly meant the greatest response seen or fitted, relative to the assay's reference. For orientation: EC50 means the midpoint of the concentration-response curve.
